In paper PMC6545112 (Journal of medicinal chemistry, 2018):
Entries after “also recorded” stand apart in the source; their conditions may differ. Like-named read-outs stand apart in the source and are kept apart here.

Columns and labels:
[1] = system: RS4;11 cell line; assay: cell growth inhibition, WST-8 assay, RS4; type: cell-based, human; conditions: for IC50: read-out: IC50 (nM) in inhibition of cell growth in the RS4;11 cell line, 4 days, WST-8 assay
[2] = target: MDM2 and p53 proteins in RS4;11 cells (Homo sapiens, UniProt Q00987); assay: western blotting analysis of MDM2 and p53 proteins in RS4; type: cell-based; conditions: 2 h treatment; for effect on MDM2 and p53 protein levels (western blotting): RS4;11 cells
MDM2 and p53 proteins in RS4;11 cells, sequence (Q00987 whole entry): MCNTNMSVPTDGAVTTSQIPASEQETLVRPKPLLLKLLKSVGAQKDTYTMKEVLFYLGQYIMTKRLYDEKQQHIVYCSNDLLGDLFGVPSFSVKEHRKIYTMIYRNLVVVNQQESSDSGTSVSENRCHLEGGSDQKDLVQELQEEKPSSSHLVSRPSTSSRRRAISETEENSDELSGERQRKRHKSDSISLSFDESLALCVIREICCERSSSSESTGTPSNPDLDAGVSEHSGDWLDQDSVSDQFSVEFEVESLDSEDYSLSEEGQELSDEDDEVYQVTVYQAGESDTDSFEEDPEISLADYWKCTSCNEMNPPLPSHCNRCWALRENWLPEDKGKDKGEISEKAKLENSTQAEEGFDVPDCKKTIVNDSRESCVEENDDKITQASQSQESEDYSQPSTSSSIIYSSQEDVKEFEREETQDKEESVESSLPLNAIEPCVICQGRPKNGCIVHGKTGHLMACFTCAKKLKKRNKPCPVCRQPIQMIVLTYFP

Molecule | effect on MDM2 and p53 protein levels (western blotting) [2] | further results
O=C1CCC(N2C(=O)c3cccc(NCCCCNC(=O)c4ccc(NC(=O)[C@@H]5NC6(CCCCC6)[C@@]6(C(=O)Nc7cc(Cl)ccc76)[C@H]5c5cccc(Cl)c5F)cc4)c3C2=O)C(=O)N1 (some centres unmarked) [Compound 1, (3’R,4’S,5’R)-6”-Chloro-4’-(3-Chloro-2-fluorophenyl)-N-(4-((4-((2-(2,6-dioxopiperidin-3-yl)-1,3-dioxoisoindolin-4-yl)amino)butyl)carbamoyl)phenyl)-2”-oxodispiro[cyclohexane-1,2’-pyrrolidine-3’,3”-indoline]-5’-carboxamide] | effectively reduce the level of MDM2 protein | times more potent than MI-1061 and MI-1242 in inhibition of cell growth ([1]; RS4;11): about 10 times; concentration that reduces/depletes MDM2 protein ([2]; RS4;11 / leukemia cells): 3 nM
O=C1CCC(N2C(=O)c3cccc(NCCOCCOCCNC(=O)c4ccc(NC(=O)[C@@H]5NC6(CCCCC6)[C@@]6(C(=O)Nc7cc(Cl)ccc76)[C@H]5c5cccc(Cl)c5F)cc4)c3C2=O)C(=O)N1 (some centres unmarked) [Compound 2, (3’R,4’S,5’R)-6”-Chloro-4’-(3-Chloro-2-fluorophenyl)-N-(4-((2-(2-(2-((2-(2,6-dioxopiperidin-3-yl)-1,3-dioxoisoindolin-4-yl)amino)ethoxy)ethoxy)-ethyl)carbamoyl)phenyl)-2”-oxodispiro[cyclohexane-1,2’-pyrrolidine-3’,3”-indoline]-5’-carboxamide] | effectively reduce the level of MDM2 protein; also recorded: effectively induce degradation of MDM2 and accumulation of p53 | times more potent than MI-1061 and MI-1242 in inhibition of cell growth ([1]; RS4;11): about 10 times
O=C1CCC(N2C(=O)c3cccc(NCCNC(=O)c4ccc(NC(=O)[C@@H]5NC6(CCCCC6)[C@@]6(C(=O)Nc7cc(Cl)ccc76)[C@H]5c5cccc(Cl)c5F)cc4)c3C2=O)C(=O)N1 (some centres unmarked) [Compound 4, (3’R,4’S,5’R)-6”-Chloro-4’-(3-Chloro-2-fluorophenyl)-N-(4-((2-((2-(2,6-dioxopiperidin-3-yl)-1,3-dioxoisoindolin-4-yl)amino)ethyl)carbamoyl)phenyl)-2”-oxodispiro[cyclohexane-1,2’-pyrrolidine-3’,3”-indoline]-5’-carboxamide] | induce degradation of MDM2 and accumulation of p53 | –
O=C1CCC(N2C(=O)c3cccc(NCCCNC(=O)c4ccc(NC(=O)[C@@H]5NC6(CCCCC6)[C@@]6(C(=O)Nc7cc(Cl)ccc76)[C@H]5c5cccc(Cl)c5F)cc4)c3C2=O)C(=O)N1 (some centres unmarked) [Compound 5, (3’R,4’S,5’R)-6”-Chloro-4’-(3-Chloro-2-fluorophenyl)-N-(4-((3-((2-(2,6-dioxopiperidin-3-yl)-1,3-dioxoisoindolin-4-yl)amino)propyl)carbamoyl)phenyl)-2”-oxodispiro[cyclohexane-1,2’-pyrrolidine-3’,3”-indoline]-5’-carboxamide] | induce degradation of MDM2 and accumulation of p53 | –
O=C1CCC(N2C(=O)c3cccc(NCCCCCNC(=O)c4ccc(NC(=O)[C@@H]5NC6(CCCCC6)[C@@]6(C(=O)Nc7cc(Cl)ccc76)[C@H]5c5cccc(Cl)c5F)cc4)c3C2=O)C(=O)N1 (some centres unmarked) [Compound 6, (3’R,4’S,5’R)-6”-Chloro-4’-(3-Chloro-2-fluorophenyl)-N-(4-((5-((2-(2,6-dioxopiperidin-3-yl)-1,3-dioxoisoindolin-4-yl)amino)pentyl)carbamoyl)phenyl)-2”-oxodispiro[cyclohexane-1,2’-pyrrolidine-3’,3”-indoline]-5’-carboxamide] | induce degradation of MDM2 and accumulation of p53 | –
O=C1CCC(N2C(=O)c3cccc(NCCCCCCNC(=O)c4ccc(NC(=O)[C@@H]5NC6(CCCCC6)[C@@]6(C(=O)Nc7cc(Cl)ccc76)[C@H]5c5cccc(Cl)c5F)cc4)c3C2=O)C(=O)N1 (some centres unmarked) [Compound 7, (3’R,4’S,5’R)-6”-Chloro-4’-(3-Chloro-2-fluorophenyl)-N-(4-((6-((2-(2,6-dioxopiperidin-3-yl)-1,3-dioxoisoindolin-4-yl)amino)hexyl)carbamoyl)phenyl)-2”-oxodispiro[cyclohexane-1,2’-pyrrolidine-3’,3”-indoline]-5’-carboxamide] | induce degradation of MDM2 and accumulation of p53 | –
O=C1CCC(N2C(=O)c3cccc(NCCCCCCCNC(=O)c4ccc(NC(=O)[C@@H]5NC6(CCCCC6)[C@@]6(C(=O)Nc7cc(Cl)ccc76)[C@H]5c5cccc(Cl)c5F)cc4)c3C2=O)C(=O)N1 (some centres unmarked) [Compound 8, (3’R,4’S,5’R)-6”-Chloro-4’-(3-Chloro-2-fluorophenyl)-N-(4-((7-((2-(2,6-dioxopiperidin-3-yl)-1,3-dioxoisoindolin-4-yl)amino)heptyl)carbamoyl)phenyl)-2”-oxodispiro[cyclohexane-1,2’-pyrrolidine-3’,3”-indoline]-5’-carboxamide] | induce degradation of MDM2 and accumulation of p53 | times less potent than 1 in inhibition of cell growth ([1]; RS4;11): 10 times
O=C1CCC(N2C(=O)c3cccc(NCCOCCNC(=O)c4ccc(NC(=O)[C@@H]5NC6(CCCCC6)[C@@]6(C(=O)Nc7cc(Cl)ccc76)[C@H]5c5cccc(Cl)c5F)cc4)c3C2=O)C(=O)N1 (some centres unmarked) [Compound 9, (3’R,4’S,5’R)-6”-Chloro-4’-(3-Chloro-2-fluorophenyl)-N-(4-((2-(2-((2-(2,6-dioxopiperidin-3-yl)-1,3-dioxoisoindolin-4-yl)amino)ethoxy)ethyl)carbamoyl)phenyl)-2”-oxodispiro[cyclohexane-1,2’-pyrrolidine-3’,3”-indoline]-5’-carboxamide] | effectively induce degradation of MDM2 and accumulation of p53 | –
O=C1CCC(N2C(=O)c3cccc(NCCOCCOCCOCCNC(=O)c4ccc(NC(=O)[C@@H]5NC6(CCCCC6)[C@@]6(C(=O)Nc7cc(Cl)ccc76)[C@H]5c5cccc(Cl)c5F)cc4)c3C2=O)C(=O)N1 (some centres unmarked) [Compound 10, (3’R,4’S,5’R)-6”-Chloro-4’-(3-Chloro-2-fluorophenyl)-N-(4-((2-(2-(2-(2-((2-(2,6-dioxopiperidin-3-yl)-1,3-dioxoisoindolin-4-yl)amino)ethoxy)ethoxy)ethoxy)-ethyl)carbamoyl)phenyl)-2”-oxodispiro[cyclohexane-1,2’-pyrrolidine-3’,3”-indoline]-5’-carboxamide] | effectively induce degradation of MDM2 and accumulation of p53 | IC50 ([1]; Homo sapiens, RS4-11, 96 h): 4.5 nM
O=C1CCC(N2C(=O)c3cccc(CCCCCNC(=O)c4ccc(NC(=O)[C@@H]5NC6(CCCCC6)[C@@]6(C(=O)Nc7cc(Cl)ccc76)[C@H]5c5cccc(Cl)c5F)cc4)c3C2=O)C(=O)N1 (some centres unmarked) [Compound 11, (3’R,4’S,5’R)-6”-Chloro-4’-(3-Chloro-2-fluorophenyl)-N-(4-((5-(2-(2,6-dioxopiperidin-3-yl)-1,3-dioxoisoindolin-4-yl)pentyl)carbamoyl)phenyl)-2”-oxodispiro[cyclohexane-1,2’-pyrrolidine-3’,3”-indoline]-5’-carboxamide] | – | times less potent than 1 in inhibition of cell growth ([1]; RS4;11): 3 times
O=C1CCC(N2Cc3c(C#CCCNC(=O)c4ccc(NC(=O)[C@@H]5NC6(CCCCC6)[C@@]6(C(=O)Nc7cc(Cl)ccc76)[C@H]5c5cccc(Cl)c5F)cc4)cccc3C2=O)C(=O)N1 (some centres unmarked) [Compound 15, (3’R,4’S,5’R)-6”-Chloro-4’-(3-chloro-2-fluorophenyl)-N-(4-((4-(2-(2,6-dioxopiperidin-3-yl)-1-oxoisoindolin-4-yl)but-3-yn-1-yl)carbamoyl)phenyl)-2”-oxodispiro[cyclohexane-1,2’-pyrrolidine-3’,3”-indoline]-5’-carboxamide] | – | times less potent than MD-224 in inhibition of cell growth ([1]; RS4;11): 2 times
O=C1CCC(N2Cc3c(C#CCCCNC(=O)c4ccc(NC(=O)[C@H]5NC6(CCCCC6)[C@]6(C(=O)Nc7cc(Cl)ccc76)[C@@H]5c5cccc(Cl)c5F)cc4)cccc3C2=O)C(=O)N1 (some centres unmarked) [Compound 21, (3’S,4’R,5’S)-6”-Chloro-4’-(3-chloro-2-fluorophenyl)-N-(4-((5-(2-(2,6-dioxopiperidin-3-yl)-1-oxoisoindolin-4-yl)pent-4-yn-1-yl)carbamoyl)phenyl)-2”-oxodispiro[cyclohexane-1,2’-pyrrolidine-3’,3”-indoline]-5’-carboxamide] | fails to induce any MDM2 degradation | activity in inhibition of cell growth (in words) ([1]; RS4;11): minimal activity
CN1C(=O)CCC(N2Cc3c(C#CCCCNC(=O)c4ccc(NC(=O)[C@@H]5NC6(CCCCC6)[C@@]6(C(=O)Nc7cc(Cl)ccc76)[C@H]5c5cccc(Cl)c5F)cc4)cccc3C2=O)C1=O (some centres unmarked) [Compound 22, (3’R,4’S,5’R)-6”-Chloro-4’-(3-chloro-2-fluorophenyl)-N-(4-((5-(2-(1-methyl-2,6-dioxopiperidin-3-yl)-1-oxoisoindolin-4-yl)pent-4-yn-1-yl)carbamoyl)phenyl)-2”-oxodispiro[cyclohexane-1,2’-pyrrolidine-3’,3”-indoline]-5’-carboxamide] | completely inactive in inducing MDM2 degradation | times less potent than MD-224 in inhibition of cell growth ([1]; RS4;11): > 100 times
CNC(=O)c1ccc(NC(=O)[C@@H]2NC3(CCCCC3)[C@@]3(C(=O)Nc4cc(Cl)ccc43)[C@H]2c2cccc(Cl)c2F)cc1 [MI-1242] | inducing accumulation of both MDM2 and p53 | –
(3’R,4’S,5’R)-6”-Chloro-4’-(3-Chloro-2-fluorophenyl)-N-(4-((5-(2-(2,6-dioxopiperidin-3-yl)-1-oxoisoindolin-5-yl)pent-4-yn-1-yl)carbamoyl)phenyl)-2”-oxodispiro[cyclohexane-1,2’-pyrrolidine-3’,3”-indoline]-5’-carboxamide [Compound 16] | effectively induce degradation of MDM2 and accumulation of p53 | times less potent than MD-224 in inhibition of cell growth ([1]; RS4;11): 3 times; IC50 [1]: 5 ± 2 nM
(3’R,4’S,5’R)-6”-Chloro-4’-(3-chloro-2-fluorophenyl)-N-(4-((4-((2-(2,6-dioxopiperidin-3-yl)-1-oxoisoindolin-4-yl)amino)butyl)carbamoyl)phenyl)-2”-oxodispiro[cyclohexane-1,2’-pyrrolidine-3’,3”-indoline]-5’-carboxamide [Compound 12] | – | times more potent than 1 in inhibition of cell growth ([1]; RS4;11): twice as potent as 1; IC50 [1]: 5 ± 5 nM
